Source: patent US6777422B2, “Substituted tetrahydroisoquinolines as C5a receptor modulators” (Neurogen Corp., priority 2002, dated 2004)

target: T1, human C5a receptor (Homo sapiens, UniProt P21730); assay: C5a receptor mediated calcium mobilization assay (Example 20); type: cell-based; settings: differentiated U937 cells, unit inferred, read-out: Ca2+ (numeric value, C5a receptor mediated calcium mobilization)
T1 construct: endogenous in cells; host or cells: U937 cells differentiated with 1 mM dibutyryl cAMP
T1 sequence (P21730 1-350): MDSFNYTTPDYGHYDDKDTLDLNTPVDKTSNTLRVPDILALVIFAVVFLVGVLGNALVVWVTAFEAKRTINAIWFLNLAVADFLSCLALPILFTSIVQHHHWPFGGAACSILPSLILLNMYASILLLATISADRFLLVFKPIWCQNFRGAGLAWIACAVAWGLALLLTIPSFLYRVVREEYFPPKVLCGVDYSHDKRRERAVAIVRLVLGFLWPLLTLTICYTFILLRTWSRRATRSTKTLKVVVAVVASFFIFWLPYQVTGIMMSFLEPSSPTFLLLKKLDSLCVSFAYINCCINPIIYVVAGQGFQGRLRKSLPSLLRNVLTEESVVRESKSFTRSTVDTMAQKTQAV
Procedure, shortened: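 Differentiated U937 cells (dibutyryl cAMP, 48 h) loaded with Fluo-3 were pre-incubated 1 h with compound at 1 μM, then challenged with 0.3 nM (final) human recombinant C5a. Calcium response monitored by FLIPR fluorescence (Ex 480/Em 530 nm); antagonism defined as ≥2-fold decrease versus C5a alone.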

Ki	SMILES
465 nM	CN(CC(=O)N(Cc1ccccc1F)C1Cc2ccccc2C1)C(c1ccccc1)c1ccccc1 [Compound 133, 2-(Benzhydryl-methyl-amino)-N-(2-fluoro-benzyl)-N-indan-2-yl-acetamide]
575 nM	CC1=C(C)C(c2ccccc2)N(CC(=O)N(Cc2ccccc2F)C2Cc3ccccc3C2)CC1 (stereo not shown) [Compound 134, 2-(4,5-Dimethyl-6-phenyl-3,6-dihydro-2H-pyridin-1-yl)-N-(2-fluoro-benzyl)-N-indan-2-yl-acetamide]
193 nM	CC1=C(C)C(c2ccccc2C)N(CC(=O)N(Cc2ccccc2F)C2Cc3ccccc3C2)CC1 (stereo not shown) [Compound 135, 2-(4,5-Dimethyl-6-o-tolyl-3,6-dihydro-2H-pyridin-1-yl)-N-(2-fluoro-benzyl)-N-indan-2-yl-acetamide]
39.9 nM	Cc1ccccc1C1c2ccsc2CCN1CC(=O)N(Cc1ccccc1F)C1Cc2ccccc2C1 (stereo not shown) [Compound 136, N-(2-Fluoro-benzyl)-N-indan-2-yl-2-(4-o-tolyl-6,7-dihydro-4H-thieno[3,2-c]pyridin-5-yl)-acetamide]
